Results as given in US20200179380A1, “SOLUTE AND SOLUTE MIXTURE, AS WELL AS A COMPOSITION COMPRISING AT LEAST ONE SOLUTE, FOR USE IN THE PREVENTION OR TREATMENT OF COSMETIC OR PATHOLOGIC EFFLORESCENCES CAUSED BY AIRBORNE PARTICLES” (bitop AG, priority 2014, published 2020).
“And” between values parts separate entries of the source, which are not always exact repeats. Equal values may be shown once. Read-outs that look alike come from different tables or passages of the source.

Experiments:
Assay type in all cases: cell-based, human
[1] = tested on: Cyp1a1 gene; experiment: Cyp1a1 gene expression (real-time PCR, relative to 18s-rRNA) in keratinocytes exposed to model particles; conditions: for inhibition at 2000 µM / activity at 2000 µM: Homo sapiens, Keratinocyte, 2 mM S-ectoine; for activity at 2000 µM: read-out: Cyp1a1 Remaining activity %
Description: The model particles were suspended in phosphate buffered saline solution and treated with ultrasound for 1 minute ([…]90, SRM1650 and SRM2975) or 90 seconds (Huber990). Subsequently, addition to keratinocytes was done immediately. […] The incubation time of keratinocytes under the influence of model particles was 24 hours. Human epidermal keratinocytes were taken from healthy patients during abdominoplasty or breast reduction with the consent of the patients. The tissue donors originate in Asia or were of Caucasian origin. The keratinocytes isolated from the tissues were cultivated in Keratinocyte-SFM (Gibco®, Life Technologies GmbH, Darmstadt, Germany). The medium was enriched by 5 mg/L of human recombinant epidermal growth factor (EGF), 50 mg/L pituitarium which is an extract from pituitary gland from bovine (Bovine Pituitary Extract, BPE), 1% L-glutamine, 1% streptomycin/amphotericin B (Invitrogen, Karlsruhe, Germany). The cultivation was done at humid atmosphere in the presence of 5% CO2. Subconfluent keratinocytes were transferred to sample vessels having 12 sample wells (12-well plates), and were each cultivated in the sample wells. Treatment with the model particles was also done in the sample wells. […] After an incubation time of 24 hours in the presence of the model particles, RNA was isolated from the keratinocytes and relative RNA content was determined. The expression of proinflammatory gene ICAM-1, POMC gene encoding for proopiomelanocortin, MMP1 gene encoding for a human collagenase, and Cyp1a1 encoding for a phase-I-enzyme of Cytochrome P450 superfamily was investigated as a marker for the influence of the model particles on skin condition. The enzyme encoded by Cyp1a1 gene ranks among the group of phase-I-P450-Cytochrome enzymes and mediates metabolism of drugs, foreign substances and environmental toxins. The Cy1a1 enzyme is a monooxygenase and responsible for metabolizing the afore-mentioned compounds. The protein is encoded in endoplasmic reticulum and its expression can severely be induced by polycyclic aromatic hydrocarbons. The enzyme encoded by Cyp1a1 metabolizes environmental noxae, in particular polycyclic aromatic hydrocarbons, into cancer-causing intermediates. Cyp1a2 is a family member related to Cyp1a1. Increased Cyp1a1 expression, and, in particular, increased Cyp1a2 expression, thus proves detoxification reaction. The total RNA content was determined according to […] et al. ([…]-Beck […], Brenden H, […]. “Bioactive molecules from the Blue Lagoon: in vitro and in vivo assessment of silica mud and microalgae extracts for their effects on skin barrier function and prevention of skin ageing”. Exp Dermatol 2008 17:771.). For this purpose, the total RNA was isolated using RNeasy Total RNA Kits (Qiagen, Hilden; Germany). The RNA concentration was photometrically determined at 260/280 nm (Biophotometer, Eppendorf, Hamburg, Germany). Aliquots of total RNA of 100 ng were used for first strand cDNA synthesis using Superscript® III for the transcription step using random primers (Invitrogen, Karlsruhe, Germany). […] For the total RNA content a specific primer for the proof of 18s rRNA was designed. Independent experiments were performed with a triple determination in each case, and the mean was determined. PCR reaction was done using CFX384 TouchTM Real-Time PCR Detection System (Bio-Rad, München, Germany). In order to fluorescent marking SybrGreen-Mix was used (Thermo Fisher Scientific, St. Leon-Rot, Germany). For each experiment three samples, respectively, were determined in duplicate, and the mean was determined. […] (activation of heat-activating taq polymerase) 10 seconds at 95° C. (denaturation), 20 seconds at 55° C. (annealing), 20 seconds at 72° C. (elongation). Likewise, for comparison of relative expression the expression of untreated keratinocytes was investigated. […] Methods 25: 402-408). […] The data underlying the statistical analysis are not shown here.

[2] = tested on: POMC gene; experiment: POMC gene expression (real-time PCR, relative to 18s-rRNA) in keratinocytes exposed to model particles; conditions: for inhibition at 2000 µM / activity at 2000 µM: Homo sapiens, Keratinocyte, 2 mM S-ectoine; for activity at 2000 µM: read-out: POMC Remaining activity %; for POMC expression ±S-ectoine mean ± SD: 24 h pretreatment with 2 mM S-ectoine, untreated = 1; for POMC expression induced by model particles after ectoine pretreatment (in words): Printex90, Huber 990, SRM1650, SRM2975, pretreatment with 2 mM ectoine for 24 hours
[3] = tested on: MMP1 gene; experiment: MMP1 gene expression (real-time PCR, relative to 18s-rRNA) in keratinocytes exposed to model particles; conditions: for inhibition at 2000 µM / activity at 2000 µM: Homo sapiens, Keratinocyte, 2 mM S-ectoine; for activity at 2000 µM: read-out: MMP1 Remaining activity %; for MMP1 expression ±S-ectoine mean ± SD: 24 h pretreatment with 2 mM S-ectoine, untreated = 1
Description: The model particles were suspended in phosphate buffered saline solution and treated with ultrasound for 1 minute ([…]90, SRM1650 and SRM2975) or 90 seconds (Huber990). Subsequently, addition to keratinocytes was done immediately. […] The incubation time of keratinocytes under the influence of model particles was 24 hours. Human epidermal keratinocytes were taken from healthy patients during abdominoplasty or breast reduction with the consent of the patients. The tissue donors originate in Asia or were of Caucasian origin. The keratinocytes isolated from the tissues were cultivated in Keratinocyte-SFM (Gibco®, Life Technologies GmbH, Darmstadt, Germany). The medium was enriched by 5 mg/L of human recombinant epidermal growth factor (EGF), 50 mg/L pituitarium which is an extract from pituitary gland from bovine (Bovine Pituitary Extract, BPE), 1% L-glutamine, 1% streptomycin/amphotericin B (Invitrogen, Karlsruhe, Germany). The cultivation was done at humid atmosphere in the presence of 5% CO2. Subconfluent keratinocytes were transferred to sample vessels having 12 sample wells (12-well plates), and were each cultivated in the sample wells. Treatment with the model particles was also done in the sample wells. […] After an incubation time of 24 hours in the presence of the model particles, RNA was isolated from the keratinocytes and relative RNA content was determined. The expression of proinflammatory gene ICAM-1, POMC gene encoding for proopiomelanocortin, MMP1 gene encoding for a human collagenase, and Cyp1a1 encoding for a phase-I-enzyme of Cytochrome P450 superfamily was investigated as a marker for the influence of the model particles on skin condition. The collagenase encoded by MMP1 gene ranks among the matrix metalloproteases and cleaves the peptide bond between proline and other amino acids of collagen I, II, III, VII and X, thereby degrading the collagen. Collagenases and, in particular, the MMP1 collagenase are involved in tissue remodeling and biological processes of the skin, such ach morphogenesis or tumor growth (benign or malign tumor formation). Thus, increased expression of MMP1 gene is a proof for increased activity of the skin cells, in particular keratinocytes. Increased MMP1 gene expression can be an indication of excessive cell growth and, thereby, of benign or malign carcinogenesis. The total RNA content was determined according to […] et al. ([…]-Beck […], Brenden H, […]. “Bioactive molecules from the Blue Lagoon: in vitro and in vivo assessment of silica mud and microalgae extracts for their effects on skin barrier function and prevention of skin ageing”. Exp Dermatol 2008 17:771.). For this purpose, the total RNA was isolated using RNeasy Total RNA Kits (Qiagen, Hilden; Germany). The RNA concentration was photometrically determined at 260/280 nm (Biophotometer, Eppendorf, Hamburg, Germany). Aliquots of total RNA of 100 ng were used for first strand cDNA synthesis using Superscript® III for the transcription step using random primers (Invitrogen, Karlsruhe, Germany). […] For the total RNA content a specific primer for the proof of 18s rRNA was designed. Independent experiments were performed with a triple determination in each case, and the mean was determined. PCR reaction was done using CFX384 TouchTM Real-Time PCR Detection System (Bio-Rad, München, Germany). In order to fluorescent marking SybrGreen-Mix was used (Thermo Fisher Scientific, St. Leon-Rot, Germany). For each experiment three samples, respectively, were determined in duplicate, and the mean was determined. The PCR protocol comprised 46 cycles, each cycle 15 minutes at 94° C. (activation of heat-activating taq polymerase) 10 seconds at 95° C. (denaturation), 20 seconds at 55° C. (annealing), 20 seconds at 72° C. (elongation). Likewise, for comparison of relative expression the expression of untreated keratinocytes was investigated. […] Methods 25: 402-408). […] The data underlying the statistical analysis are not shown here.

[4] = Printex90, Huber 990, SRM1650, SRM2975, pretreatment with 2 mM ectoine

## CC1=N[C@H](C(=O)O)CCN1 [S-ectoine, (S)-1,4,5,6-tetrahydro-2-methyl-4-pyrimidine carboxylic acid]
[1]; Huber990 particles
  inhibition at 2000 µM: 57%
  activity at 2000 µM: 43%
[1]; Printex90 particles
  inhibition at 2000 µM: 70%
  activity at 2000 µM: 30%
[1]; SRM1650 particles
  inhibition at 2000 µM: 46%
  activity at 2000 µM: 54%
[1]; SRM2975 particles
  inhibition at 2000 µM: 41%
  activity at 2000 µM: 59%
[1]; [4]
  Cyp1a1 expression induced by model particles after ectoine pretreatment (in words): inhibited
[1]; Printex90 particles, 24 h pretreatment with 2 mM S-ectoine, untreated = 1
  Cyp1a1 expression ±S-ectoine mean ± SD: 1.19 and 1.19 ± 0.29
[2]; Huber990 particles
  inhibition at 2000 µM: 100%
  activity at 2000 µM: 0%
  POMC expression ±S-ectoine mean ± SD: 0.83 ± 0.04+
[2]; Printex90 particles
  inhibition at 2000 µM: 100%
  activity at 2000 µM: 0%
  POMC expression ±S-ectoine mean ± SD: 0.88 ± 0.05+
[2]; SRM1650 particles
  inhibition at 2000 µM: 99%
  activity at 2000 µM: 1%
  POMC expression ±S-ectoine mean ± SD: 1.01 ± 0.05+
[2]; SRM2975 particles
  inhibition at 2000 µM: 100%
  activity at 2000 µM: 0%
  POMC expression ±S-ectoine mean ± SD: 0.99 ± 0.08+
[2]
  POMC expression induced by model particles after ectoine pretreatment (in words): significant inhibition
[2]; listed as ectoine
  POMC expression induced by model particles after ectoine pretreatment (in words): inhibited
[3]; Huber990 particles
  inhibition at 2000 µM: 42%
  activity at 2000 µM: 58%
[3]; SRM1650 particles
  inhibition at 2000 µM: 26%
  activity at 2000 µM: 74%
[3]; [4]
  MMP1 expression induced by model particles after ectoine pretreatment (in words): inhibited
[3]; Printex90 particles
  MMP1 expression ±S-ectoine mean ± SD: 0.82 ± 0.10
[3]; SRM2975 particles
  MMP1 expression ±S-ectoine mean ± SD: 1.28 ± 0.22
